Data: patent US9497963B2, “Methods and compositions for control of gypsy moth, Lymantria dispar” (Simon Fraser University, priority 2008, dated 2016)

Tested on: male gypsy moth antenna
Test: Coupled gas chromatographic-electroantennographic detection (GC-EAD)
Design: species or system Lymantria dispar
Conditions: EAD peak size and shape (sharp/broad)
Text: In GC-EAD assays, the analyte is processed by gas chromatography (GC). The column effluent is split, such that molecules of each chromatographic peak arrive simultaneously at the flame ionization detector of the GC and at an anectomized but otherwise intact insect antenna as the biological detector. This procedure detects specific compounds in the analyte that elicit an electrical potential from the antenna.
For GC-EAD recordings, an antenna was carefully dislodged from a male moth's head, and the antennal base placed into the opening of a glass capillary electrode (0.58 mm ID×65 mm length) (A-M Systems, Inc., Carlsborg, Wash., USA) filled with saline solution. The tip of the antenna was removed by spring microscissors (Fine Science Tools Inc., North Vancouver, British Columbia, Canada) and then placed into the opening of the recording electrode mounted on a portable micromanipulator and positioned in front of a constant stream of warm air (Praxair Canada Inc., Mississauga, Ontario, Canada) which delivered the GC column eluent. […] Identical retention times of compounds detected by the flame ionization detector of the GC and by the insect antenna allowed assignment of antennal responses to specific compounds in the eluent.

| SMILES | GC-EAD activity |
| --- | --- |
| C=CCOc1ccc(OCCCC)cc1 [3c{4,6}, 1-allyloxy-4-butoxy benzene] | None |
| COc1cccc(OCCC(C)C)c1 [3b{1,5}, 1-methoxy-3-(3-methyl-butyloxy) benzene] | None |
| CCCCOc1cccc(OCC)c1 [3b{2,4}, 1-butoxy-3-ethoxy benzene] | None |
| CCCOc1ccccc1OC [3a{1,3}, 1-methoxy-2-propoxy benzene] | + sharp |
| CCCOc1ccccc1OCC [3a{2,3}, 1-ethoxy-2-propoxy benzene] | + sharp |
| C=CCOc1ccccc1OCC [3a{2,6}, 1-allyloxy-2-ethoxy benzene] | + broad |
| C=CCOc1ccc(OC)cc1 [3c{1,6}, 1-allyloxy-4-methoxybenzene] | Trace |
| CCCCOc1cccc(OCCC)c1 [3b{3,4}, 1-butoxy-3-propoxy benzene] | None |
| CCOc1ccccc1OCCC(C)C [3a{2,5}, 1-ethoxy-2-(3-methyl-butoxy) benzene] | ++ sharp |
| CCCCOc1ccccc1OCCC(C)C [3a{4,5}, 1-butoxy-2-(3-methyl-butoxy) benzene] | + broad |
| CCCOc1cccc(OCC)c1 [3b{2,3}, 1-ethoxy-3-propoxy benzene] | None |
| C=CCOc1ccc(OCC)cc1 [3c{2,6}, 1-allyloxy-4-ethoxybenzene] | Trace |
| COc1ccccc1OCCC(C)C [3a{1,5}, 1-methoxy-2-(3-methyl-butoxy) benzene] | + broad |
| CCCCOc1ccccc1OCCC [3a{3,4}, 1-butoxy-2-propoxy benzene] | ++ sharp |
| CCCCOc1ccccc1OC [3a{1,4}, 1-butoxy-2-methoxy benzene] | Trace |
| CCOc1cccc(OCCC(C)C)c1 [3b{2,5}, 1-ethoxy-3-(3-methyl-butyloxy) benzene] | None |
| CCCCOc1cccc(OCCC(C)C)c1 [3b{4,5}, 1-butoxy-3-(3-methyl-butyloxy) benzene] | None |
| CCOc1ccccc1OC [3a{1,2}, 1-ethoxy-2-methoxy benzene] | ++ sharp |
| CCOc1cccc(OC)c1 [3b{1,2}, 1-ethoxy-3-methoxy benzene] | Trace |
| CCCOc1cccc(OC)c1 [3b{1,3}, 1-methoxy-3-propoxy benzene] | Trace |
| C=CCOc1ccccc1OC [3a{1,6}, 1-allyloxy-2-methoxy benzene] | + sharp |
| C=CCOc1ccccc1OCCC(C)C [3a{5,6}, 1-allyloxy-2-isopentoxybenzene] | + broad |
| CCCOc1cccc(OCCC(C)C)c1 [3b{3,5}, 1-(3-methyl-butyloxy)-3-propoxy benzene] | None |
| C=CCOc1ccc(OCCC(C)C)cc1 [3c{5,6}, 1-allyloxy-4-isopentoxybenzene] | None |
| CCCOc1ccccc1OCCC(C)C [3a{3,5}, 1-(3-methyl-butoxy)-2-propoxy benzene] | + broad |
| CCCCOc1ccccc1OCC [3a{2,4}, 1-ethoxy-2-butoxy benzene] | ++ sharp |
| C=CCOc1ccccc1OCCCC [3a{4,6}, 1-allyloxy-2-butoxybenzene] | ++ broad |
| CCCCOc1cccc(OC)c1 [3b{1,4}, 1-butoxy-3-methoxy benzene] | None |
| C=CCOc1ccccc1OCCC [3a{3,6}, 1-allyloxy-2-propoxybenzene] | ++ broad |

Same assay, conditions: male gypsy moth antenna; starting phenols 4, diethers 5 and dihydropyrans 6c from Claisen rearrangement chemistry

| SMILES | GC-EAD activity |
| --- | --- |
| C=CCc1cccc(OCC)c1O [4a{2}, 2-allyl-6-ethoxy phenol] | + sharp |
| CCCCOc1ccc2c(c1)CC(C)O2 (stereo not drawn) [6c{4}, 5-butoxy-2-methyl-2,3-dihydro benzofuran] | None |
| CCOc1ccc2c(c1)CC(C)O2 (stereo not drawn) [6c{2}, 5-ethoxy-2-methyl-2,3-dihydro benzofuran] | Trace |
| C=CCc1cc(OCCC(C)C)ccc1O [4c{5}, 2-allyl-4-(3-methyl-butoxy) phenol] | None |
| C=CCc1cccc(OC)c1O [4a{1}, 2-allyl-6-methoxy phenol] | ++ sharp |
| C=CCc1cccc(OC)c1OCCC [5a{3, 1}] | + broad |
| C=CCc1cccc(OCCCC)c1O [4a{4}, 2-allyl-6-butoxy phenol] | Trace |
| C=CCc1cc(OCCCC)ccc1O [4c{4}, 2-allyl-4-butoxy phenol] | None |
| C=CCOc1cccc(CC=C)c1OCCC(C)C [5a{5, 6}] | None |
| C=CCc1cccc(OCCC)c1OCCC(C)C [5a{5, 3}] | None |
| C=CCc1cc(OC)ccc1O [4c{1}, 2-allyl-4-methoxy phenol] | ++ sharp |
| CC(C)CCOc1ccc2c(c1)CC(C)O2 (stereo not drawn) [6c{5}, 5-(3-methyl-butoxy)-2-methyl-2,3-dihydro benzofuran] | None |
| C=CCc1cccc(OCCCC)c1OCCC(C)C [5a{5, 4}] | None |
| C=CCc1cccc(OC)c1OCCC(C)C [5a{5, 1}] | Trace |
| C=CCc1cccc(OC)c1OCC [5a{2, 1}] | Trace |
| COc1ccc2c(c1)CC(C)O2 (stereo not drawn) [6c{1}, 5-methoxy-2-methyl-2,3-dihydro benzofuran] | + sharp |
| C=CCc1cc(OCC)ccc1O [4c{2}, 2-allyl-4-ethoxy phenol] | + sharp |
| C=CCc1cccc(OCCC(C)C)c1O [4a{5}, 2-allyl-6-(3-methyl-butoxy) phenol] | Trace |
| C=CCc1cccc(OC)c1OCCCC [5a{4, 1}] | None |
| C=CCc1cccc(OCC)c1OCCC [5a{3, 2}] | + broad |
| C=CCc1cccc(OCC)c1OCCC(C)C [5a{5, 2}] | None |
| C=CCc1cccc(OCCC)c1OCCCC [5a{4, 3}] | None |
| CCCOc1ccc2c(c1)CC(C)O2 (stereo not drawn) [6c{3}, 5-propoxy-2-methyl-2,3-dihydro benzofuran] | Trace |
| C=CCc1cc(OCCC)ccc1O [4c{3}, 2-allyl-4-propoxy phenol] | Trace |
| C=CCc1cccc(OCCC)c1O [4a{3}, 2-allyl-6-propoxy phenol] | + broad |
